Experimental data reported in PMC12362615, “Design, Synthesis, and Cellular Characterization of a New Class of IPMK Kinase Inhibitors” (Journal of Medicinal Chemistry, 2025).
Where two headings read alike, the source gives them in different places.

Assays:
[1] = system: AKT phosphorylation in U251-MG glioblastoma cells; test: Western blots of phospho-AKT; assay type: cell-based, human; set-up: key to AKT P-Thr-308 signal intensity compared to DMSO / AKT P-Ser-473 signal intensity compared to DMSO: ns= not si gni fi cant by unpai r ed t -test
Protocol: About 3.5 × 10^6 U251 cells were seeded in 15 cm plates containing 30 mL of DMEM supplemented with 4.5 g/L D-glucose, L-glutamine, 10% FBS, 1% nonessential amino acids, and 1% penicillin–streptomycin (all from Thermo Fisher). […] Protein concentration was equalized using a Bradford assay, and samples were run on SDS-PAGE at 150 V for 1 h. Protein transfer was performed at 20 V for 1 h, membranes were blocked with 7 mL of EveryBlot blocking buffer (Bio-Rad) for 10 min. Primary antibodies used were AKT (#9272), Actin (#3700), and phospho-AKT (Ser473, #4060) at a 1:1000 dilution in EveryBlot blocking buffer, and phospho-AKT (Thr308, #13038) at a 1:400 dilution; all antibodies were from Cell Signaling Technology. After overnight incubation at 4 °C, membranes were washed and incubated with secondary antibodies (1:10,000 dilution for AKT, Actin, and P-AKT Ser473; 1:4000 for P-AKT Thr308) for 1 h. Detection was performed using Clarity Western ECL substrate (Bio-Rad) according to the manufacturer’s instructions and imaged using the Bio-Rad ChemiDoc system.

IKKb = target: T1, IKKb (Homo sapiens, UniProt O14920); test: Protein kinase profiling, Mobility Shift Assay (Carna Biosciences); assay type: biochemical; details: read-out: % Inhibition at 1.0 μM 14
T1 construct: purchased Carna Biosciences
T1 sequence (O14920 whole entry): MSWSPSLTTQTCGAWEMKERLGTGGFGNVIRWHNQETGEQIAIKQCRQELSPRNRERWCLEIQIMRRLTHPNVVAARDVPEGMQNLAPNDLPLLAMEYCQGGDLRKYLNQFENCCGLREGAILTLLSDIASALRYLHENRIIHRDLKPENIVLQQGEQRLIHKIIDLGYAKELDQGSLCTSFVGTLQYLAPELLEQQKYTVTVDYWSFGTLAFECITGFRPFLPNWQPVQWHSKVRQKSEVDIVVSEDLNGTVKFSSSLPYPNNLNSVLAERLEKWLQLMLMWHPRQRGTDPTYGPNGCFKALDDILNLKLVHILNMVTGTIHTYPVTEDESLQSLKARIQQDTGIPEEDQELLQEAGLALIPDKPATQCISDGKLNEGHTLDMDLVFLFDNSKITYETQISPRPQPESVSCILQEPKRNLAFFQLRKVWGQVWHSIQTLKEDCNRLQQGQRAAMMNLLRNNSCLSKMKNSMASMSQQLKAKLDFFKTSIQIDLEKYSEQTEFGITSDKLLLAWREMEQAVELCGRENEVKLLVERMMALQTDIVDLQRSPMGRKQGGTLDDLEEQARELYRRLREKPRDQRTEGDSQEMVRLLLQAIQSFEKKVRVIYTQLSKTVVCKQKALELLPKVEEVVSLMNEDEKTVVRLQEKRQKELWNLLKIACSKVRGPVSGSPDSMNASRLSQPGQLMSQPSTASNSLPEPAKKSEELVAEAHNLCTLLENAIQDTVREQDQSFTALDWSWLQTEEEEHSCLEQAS
Protocol: (§1) Protein kinase profiling of compound 14 was executed by Carna Biosciences. Briefly, compound 14 was prepared by dissolving it in dimethyl sulfoxide (DMSO) and then further diluting it in DMSO to a concentration of […]. That stock solution was further diluted 25-fold with kinase assay buffer (20 mM HEPES, 0.01% Triton X-100, 2 mM DTT, pH 7.5) to make the final 1 μM compound 14 solution. Reference compounds for the assay controls were prepared similarly. The off-chip Mobility Shift Assay (MSA) was prepared with 5 μL of 4× compound solution, 5 μL of 4× substrate/ATP/metal solution, and 10 μL of 2× kinase solution, prepared with assay buffer (20 mM HEPES, 0.01% Triton X-100, 2 mM DTT, pH 7.5). The components were mixed and incubated in a polypropylene 384-well microplate for 1 h or 5 h at room temperature, depending on the kinase being tested. 60 μL of termination buffer (QuickScout Screening Assist MSA; Carna Biosciences) was added to the well to stop the reactions, and the mixture was applied to a LabChip3000 system (Caliper Life Sciences. The product and substrate peptide peaks were separated and quantitated. The kinase reactions were evaluated by the product ratio, calculated from the peak heights of the product (P) and substrate (S) peptides (P/(P + S)). Product ratio values for the control reaction were set as 0% inhibition, and the readout value of the background (no kinase added) was set as 100% inhibition. The percent inhibition of each test solution was then calculated as reported in Figure A. The phylogenetic tree was generated using KinMap at https://bmcbioinformatics.biomedcentral.com/articles/10.1186/s12859-016-1433-7.

JAK3 = target: T2, JAK3 (Homo sapiens, UniProt P52333); test: as above; assay type: biochemical; details: read-out: % Inhibition at 1.0 μM 14
T2 construct: purchased Carna Biosciences
Protocol: as §1

IRAK4 = target: T3, IRAK4 (Homo sapiens, UniProt Q9NWZ3); test: as above; assay type: biochemical; details: read-out: % Inhibition at 1.0 μM 14
T3 construct: purchased Carna Biosciences
Protocol: as §1

ABL = target: T4, ABL (Homo sapiens, UniProt P00519); test: as above; assay type: biochemical; details: read-out: % Inhibition at 1.0 μM 14
T4 construct: purchased Carna Biosciences
T4 sequence (P00519 whole entry): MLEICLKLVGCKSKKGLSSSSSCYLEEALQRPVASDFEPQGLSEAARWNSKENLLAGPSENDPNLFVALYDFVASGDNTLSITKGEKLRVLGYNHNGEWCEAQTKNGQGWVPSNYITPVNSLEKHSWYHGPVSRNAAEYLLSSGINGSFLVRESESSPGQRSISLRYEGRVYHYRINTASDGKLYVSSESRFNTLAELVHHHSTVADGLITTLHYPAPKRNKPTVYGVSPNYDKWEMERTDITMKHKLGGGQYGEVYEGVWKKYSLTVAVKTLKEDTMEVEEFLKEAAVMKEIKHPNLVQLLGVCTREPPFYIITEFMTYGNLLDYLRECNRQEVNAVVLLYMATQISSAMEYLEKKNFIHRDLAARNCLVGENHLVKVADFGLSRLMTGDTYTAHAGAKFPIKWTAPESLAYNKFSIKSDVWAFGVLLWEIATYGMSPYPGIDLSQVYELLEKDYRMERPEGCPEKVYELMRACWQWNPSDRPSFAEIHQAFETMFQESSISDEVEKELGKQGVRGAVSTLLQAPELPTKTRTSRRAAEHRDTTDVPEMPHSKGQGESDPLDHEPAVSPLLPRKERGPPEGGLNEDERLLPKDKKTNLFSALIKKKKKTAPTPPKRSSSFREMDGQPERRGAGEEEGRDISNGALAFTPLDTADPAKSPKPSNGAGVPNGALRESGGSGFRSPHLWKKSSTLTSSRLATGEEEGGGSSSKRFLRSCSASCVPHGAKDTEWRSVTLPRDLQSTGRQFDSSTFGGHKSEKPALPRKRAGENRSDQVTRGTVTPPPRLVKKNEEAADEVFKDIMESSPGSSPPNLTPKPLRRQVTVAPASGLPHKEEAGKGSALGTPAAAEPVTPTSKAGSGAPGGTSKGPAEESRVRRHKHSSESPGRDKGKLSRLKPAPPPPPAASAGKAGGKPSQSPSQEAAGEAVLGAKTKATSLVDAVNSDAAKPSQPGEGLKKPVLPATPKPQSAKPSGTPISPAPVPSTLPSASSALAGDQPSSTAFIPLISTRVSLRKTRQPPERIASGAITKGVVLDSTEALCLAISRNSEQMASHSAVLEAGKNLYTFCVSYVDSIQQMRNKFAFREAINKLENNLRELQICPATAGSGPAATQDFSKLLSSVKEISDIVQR
Protocol: as §1

CSK = target: T5, CSK (Homo sapiens, UniProt P41240); test: as above; assay type: biochemical; details: read-out: % Inhibition at 1.0 μM 14
T5 construct: purchased Carna Biosciences
T5 sequence (P41240 whole entry): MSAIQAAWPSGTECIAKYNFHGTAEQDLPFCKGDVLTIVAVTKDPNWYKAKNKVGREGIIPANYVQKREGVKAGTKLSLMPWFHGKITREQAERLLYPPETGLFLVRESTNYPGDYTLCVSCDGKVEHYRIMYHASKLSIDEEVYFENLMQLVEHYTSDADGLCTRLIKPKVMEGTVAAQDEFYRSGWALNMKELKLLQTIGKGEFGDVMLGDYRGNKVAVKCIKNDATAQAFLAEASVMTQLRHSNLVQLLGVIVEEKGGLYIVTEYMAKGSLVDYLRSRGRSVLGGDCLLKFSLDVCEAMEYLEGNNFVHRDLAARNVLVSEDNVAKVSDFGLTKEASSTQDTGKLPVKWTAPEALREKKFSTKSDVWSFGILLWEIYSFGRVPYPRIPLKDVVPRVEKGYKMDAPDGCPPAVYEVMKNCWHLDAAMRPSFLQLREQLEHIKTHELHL
Protocol: as §1

MER = target: T6, MER (Homo sapiens, UniProt Q12866); test: as above; assay type: biochemical; details: read-out: % Inhibition at 1.0 μM 14
T6 construct: purchased Carna Biosciences
Protocol: as §1

PKCa = target: T7, PKCa (Homo sapiens, UniProt P17252); test: as above; assay type: biochemical; details: read-out: % Inhibition at 1.0 μM 14
T7 construct: purchased Carna Biosciences
Protocol: as §1

MET = target: T8, MET (Homo sapiens, UniProt P08581); test: as above; assay type: biochemical; details: read-out: % Inhibition at 1.0 μM 14
T8 construct: purchased Carna Biosciences
Protocol: as §1

CDK2 = target: T9, CDK2 (Homo sapiens, UniProt P24941); test: as above; assay type: biochemical; details: read-out: % Inhibition at 1.0 μM 14
T9 construct: purchased Carna Biosciences
Protocol: as §1

JNK2 = target: T10, JNK2 (Homo sapiens, UniProt P45984); test: as above; assay type: biochemical; details: read-out: % Inhibition at 1.0 μM 14
T10 construct: purchased Carna Biosciences
Protocol: as §1

SYK = target: T11, SYK (Homo sapiens, UniProt P43405); test: as above; assay type: biochemical; details: read-out: % Inhibition at 1.0 μM 14
T11 construct: purchased Carna Biosciences
Protocol: as §1

AKT1 = target: T12, AKT1 (Homo sapiens, UniProt P31749); test: as above; assay type: biochemical; details: read-out: % Inhibition at 1.0 μM 14
T12 construct: purchased Carna Biosciences
T12 sequence (P31749 whole entry): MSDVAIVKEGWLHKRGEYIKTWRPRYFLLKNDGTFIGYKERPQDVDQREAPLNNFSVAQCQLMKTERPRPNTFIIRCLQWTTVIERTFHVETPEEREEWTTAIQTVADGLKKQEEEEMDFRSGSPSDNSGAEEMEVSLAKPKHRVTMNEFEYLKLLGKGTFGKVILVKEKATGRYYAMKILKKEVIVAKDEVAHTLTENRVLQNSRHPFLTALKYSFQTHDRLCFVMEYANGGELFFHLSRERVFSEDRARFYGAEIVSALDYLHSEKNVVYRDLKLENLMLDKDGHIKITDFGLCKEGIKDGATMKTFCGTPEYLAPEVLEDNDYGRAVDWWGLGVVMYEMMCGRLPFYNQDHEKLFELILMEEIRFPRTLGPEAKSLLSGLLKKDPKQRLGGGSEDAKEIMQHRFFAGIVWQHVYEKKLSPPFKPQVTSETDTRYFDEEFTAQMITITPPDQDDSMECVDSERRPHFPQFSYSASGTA
Protocol: as §1

p38a = target: T13, p38a (Homo sapiens, UniProt Q16539); test: as above; assay type: biochemical; details: read-out: % Inhibition at 1.0 μM 14
T13 construct: purchased Carna Biosciences
Protocol: as §1

AurA = target: T14, AurA (Homo sapiens, UniProt O14965); test: as above; assay type: biochemical; details: read-out: % Inhibition at 1.0 μM 14
T14 construct: purchased Carna Biosciences
T14 sequence (O14965 whole entry): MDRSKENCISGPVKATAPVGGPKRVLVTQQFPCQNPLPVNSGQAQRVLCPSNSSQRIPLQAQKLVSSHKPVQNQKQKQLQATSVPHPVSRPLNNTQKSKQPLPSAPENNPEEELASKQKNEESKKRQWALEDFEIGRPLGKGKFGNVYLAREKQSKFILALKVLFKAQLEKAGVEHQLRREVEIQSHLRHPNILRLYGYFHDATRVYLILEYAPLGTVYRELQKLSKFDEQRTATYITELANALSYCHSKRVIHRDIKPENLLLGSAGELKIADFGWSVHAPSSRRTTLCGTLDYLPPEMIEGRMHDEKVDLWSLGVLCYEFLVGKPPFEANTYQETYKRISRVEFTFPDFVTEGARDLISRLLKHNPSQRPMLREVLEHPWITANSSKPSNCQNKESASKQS
Protocol: as §1

CaMK4 = target: T15, CaMK4 (Homo sapiens, UniProt Q16566); test: as above; assay type: biochemical; details: read-out: % Inhibition at 1.0 μM 14
T15 construct: purchased Carna Biosciences
T15 sequence (Q16566 whole entry): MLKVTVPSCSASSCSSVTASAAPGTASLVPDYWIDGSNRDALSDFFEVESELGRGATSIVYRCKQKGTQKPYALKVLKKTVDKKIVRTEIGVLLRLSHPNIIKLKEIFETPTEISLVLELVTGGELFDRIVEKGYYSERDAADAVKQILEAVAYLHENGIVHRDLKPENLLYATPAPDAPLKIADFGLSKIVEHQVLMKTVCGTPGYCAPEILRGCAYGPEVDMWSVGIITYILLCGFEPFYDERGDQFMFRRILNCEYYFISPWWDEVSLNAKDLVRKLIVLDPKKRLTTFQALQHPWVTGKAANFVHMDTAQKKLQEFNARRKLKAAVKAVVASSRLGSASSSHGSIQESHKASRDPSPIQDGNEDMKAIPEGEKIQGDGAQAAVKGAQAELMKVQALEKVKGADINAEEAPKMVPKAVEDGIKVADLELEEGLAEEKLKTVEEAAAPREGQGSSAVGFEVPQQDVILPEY
Protocol: as §1

LCK = target: T16, LCK (Homo sapiens, UniProt P06239); test: as above; assay type: biochemical; details: read-out: % Inhibition at 1.0 μM 14
T16 construct: purchased Carna Biosciences
T16 sequence (P06239 whole entry): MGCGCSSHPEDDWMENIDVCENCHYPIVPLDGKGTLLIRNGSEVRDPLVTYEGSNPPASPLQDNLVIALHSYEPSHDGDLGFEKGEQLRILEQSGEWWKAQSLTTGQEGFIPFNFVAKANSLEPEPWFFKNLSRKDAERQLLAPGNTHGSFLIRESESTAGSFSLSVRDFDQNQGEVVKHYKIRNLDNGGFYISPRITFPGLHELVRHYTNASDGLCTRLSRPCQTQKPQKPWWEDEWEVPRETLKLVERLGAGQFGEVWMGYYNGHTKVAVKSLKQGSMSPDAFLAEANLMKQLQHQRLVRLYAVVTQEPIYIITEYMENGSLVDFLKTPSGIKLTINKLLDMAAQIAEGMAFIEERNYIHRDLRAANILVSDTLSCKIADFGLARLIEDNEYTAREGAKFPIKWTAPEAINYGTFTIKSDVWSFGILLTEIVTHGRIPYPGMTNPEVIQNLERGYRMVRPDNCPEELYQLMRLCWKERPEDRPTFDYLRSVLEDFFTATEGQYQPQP
Protocol: as §1

MST1 = target: T17, MST1 (Homo sapiens, UniProt Q13043); test: as above; assay type: biochemical; details: read-out: % Inhibition at 1.0 μM 14
T17 construct: purchased Carna Biosciences
T17 sequence (Q13043 whole entry): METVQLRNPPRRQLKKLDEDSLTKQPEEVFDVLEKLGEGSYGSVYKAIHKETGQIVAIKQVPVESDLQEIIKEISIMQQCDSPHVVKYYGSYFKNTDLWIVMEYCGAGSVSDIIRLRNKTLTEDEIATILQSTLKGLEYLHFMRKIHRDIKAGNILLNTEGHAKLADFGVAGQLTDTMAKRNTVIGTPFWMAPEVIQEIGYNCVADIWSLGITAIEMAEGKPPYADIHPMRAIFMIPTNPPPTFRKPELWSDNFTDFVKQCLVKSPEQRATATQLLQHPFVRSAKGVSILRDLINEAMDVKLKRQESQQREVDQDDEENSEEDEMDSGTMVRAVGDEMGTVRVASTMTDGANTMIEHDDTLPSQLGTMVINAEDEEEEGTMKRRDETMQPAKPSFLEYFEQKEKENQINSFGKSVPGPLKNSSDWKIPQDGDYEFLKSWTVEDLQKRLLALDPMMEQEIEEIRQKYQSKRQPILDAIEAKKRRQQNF
Protocol: as §1

[2] = target: T18, purified recombinant human IPMK kinase domain (Homo sapiens, UniProt Q8NFU5); test: IPMK IC50 determination, Kinase-Glo assay; assay type: biochemical
T18 sequence (Q8NFU5 with tags, fused parts or gaps): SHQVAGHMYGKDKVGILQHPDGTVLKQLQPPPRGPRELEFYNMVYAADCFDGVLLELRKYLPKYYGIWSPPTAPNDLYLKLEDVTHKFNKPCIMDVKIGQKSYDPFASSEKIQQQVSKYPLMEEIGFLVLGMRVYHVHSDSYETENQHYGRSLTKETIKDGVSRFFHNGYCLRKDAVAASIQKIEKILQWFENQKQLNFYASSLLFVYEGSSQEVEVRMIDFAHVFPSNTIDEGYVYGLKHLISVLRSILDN
Text: (§2) These assay conditions were optimized with respect to reaction time, IPMK enzyme concentration, and IP3 concentration to determine the IC50 values for these ATP-competitive compounds.

[3] = system: purified recombinant human IPMK kinase domain; test: IPMK IC50 determination, Kinase-Glo assay; assay type: biochemical
Text: as §2

## c1cc(-c2onc3ccc(-c4nnn[nH]4)cc23)cc(C2CCN(C3CCC3)CC2)c1 [Compound 14, 3-(3-(1-Cyclobutylpiperidin-4-yl)phenyl)-5-(1H-tetrazol-5-yl)benzo[c]isoxazole]
[1]; 10 μM
  AKT P-Ser-473 signal intensity compared to DMSO: ns
  AKT P-Thr-308 signal intensity compared to DMSO: ns
[1]; 30 μM
  AKT P-Ser-473 signal intensity compared to DMSO: ns
  AKT P-Thr-308 signal intensity compared to DMSO: ns
[1]; 50 μM
  AKT P-Ser-473 signal intensity compared to DMSO: ns
  AKT P-Thr-308 signal intensity compared to DMSO: ns
[1]; after 48 h of treatment as printed in text
  cytosolic AKT phosphorylation: did not detect any changes
IKKb
  inhibition at 1 µM: 0.4%
JAK3
  inhibition at 1 µM: 72.8%
IRAK4
  inhibition at 1 µM: 1.3%
ABL
  inhibition at 1 µM: 27.5%
CSK
  inhibition at 1 µM: 5.5%
MER
  inhibition at 1 µM: 72%
PKCa
  inhibition at 1 µM: 59.6%
MET
  inhibition at 1 µM: 34.7%
CDK2
  inhibition at 1 µM: 1.6%
JNK2
  inhibition at 1 µM: 7.7%
SYK
  inhibition at 1 µM: -13%
AKT1
  inhibition at 1 µM: 7.4%
p38a
  inhibition at 1 µM: 2.6%
AurA
  inhibition at 1 µM: 24.7%
CaMK4
  inhibition at 1 µM: -4%
LCK
  inhibition at 1 µM: 32.7%
MST1
  inhibition at 1 µM: 51%
[2]; Kinase-Glo assay, 12.5 μM Ins(1,4,5)P3, 10 μM ATP, read-out: IC50 toward recombinant human IPMK
  IC50: 32 ± 2.4 nM
[2]; supplementary csv, read-out: IPMK IC50
  IC50: 31.6 ± 2.4 nM
[3]
  concentration of maximum IPMK inhibition: 100 nM
